pIC50: −log10 of the molar value.
What was measured:
[1] = target: T1, PI3Kα (wild-type), P110/P85α (Homo sapiens, UniProt P42336); assay: PI3 Kinase TR-FRET assay, PI3Kα (wild-type); format: biochemical
T1 construct: made in house; host or cells: SF9 insect cells
Protocol: The ability of compounds of the invention to inhibit PI3K activity was determined in a homogeneous TR-FRET assay using a PI3K assay kit (Millipore, USA; cat #33-016) according to manufacturer's instructions. PI3-Kinases (isoforms α, β, γ and δ) catalyze the phosphorylation of phosphatidylinositol, PIP2 to PIP3 in the presence of ATP and Mg^2+. The PIP3 product is detected by displacement of biotin-PIP3 from an energy transfer complex consisting of Europium labeled anti-GST monoclonal antibody, a GST-tagged PH domain, biotinylated PIP3 and Streptavidin-APC. Excitation of Europium in the complex results in an energy transfer to the APC and a fluorescence emission at 665 nm. The PIP3 product displaces biotin-PIP3 from the complex resulting in a loss of energy transfer and thus a decrease in signal.
To test for the ability of compounds to inhibit the activity of PI3Kα (wild-type), exemplary compounds of formula (I) were dissolved in DMSO and directly distributed into 384-well plates at a volume of 0.5 μL. 14.5 μL of P110/P85α/PIP2 mixture in buffer (obtained from the Millipore kit) containing MgCl2 (40 mM) and DTT (5 mM) was added to compound wells and incubated for 60 min at room temperature. P110/P85α was expressed in SF9 insect cells and purified nickel column extraction. Five ng of wild-type P110/P85α was used in the assay. The kinase reaction was started by the addition of ATP. The assay concentrations of both PIP2 and ATP were 10 μM. The reaction mixture was incubated for 30 min at room temperature and was terminated by the addition of stop mix and detection mix. Fluorescence was measured at 615 and 665 nm upon excitation at 340 nm in a Victor™ V5 fluorometer (Perkin Elmer, USA). The fluorescence emission ratio at 665 to 615 nm, proportional to the kinase activity, was plotted against the compound concentration to generate dose-response curves and IC50 values were determined using GraphPad Prism® 5 software.

mTOR kinase = target: T2, mTOR kinase (Homo sapiens, UniProt P42345); assay: mTOR kinase TR-FRET assay; format: biochemical; settings: read-out: mTO R
T2 construct: purchased Millipore, USA
Protocol: Compound inhibition for mTOR kinase was determined in a homogeneous TR-FRET assay using the Lance® ULight-p70 S6K (Thr 389) peptide (obtained from Perkin-Elmer). The ULight™-labeled synthetic peptide contains the amino acid residues surrounding Thr389 of human p70 S6K. The ULight-p70 S6K peptide is phosphorylated at Thr389 by mTOR. Phosphorylation motif: LGFTYVAP as substrate.
The compound dilution was carried out in 100% DMSO followed by a buffer dilution. The reaction buffer was HEPES (50 mM pH 7.5), EGTA (1 mM), MnCl2 (3 mM). Test compounds at various concentrations were pre-incubated with mTOR (Millipore, USA; 5 ng) for 60 min, and then the Lance® ULight-p70 S6K (Thr 389) peptide (50 nM) was added along with ATP (20 μM). After incubating the reaction mixture for 60 min at room temperature, the kinase reaction was terminated by the addition of EDTA (10 mM) followed by the addition of detection mix, i.e., 1 nM Eu-labeled anti-phospho-substrate antibody (Perkin Elmer, USA). The fluorescence emission at […] was measured upon excitation at 340 nm. IC50 values were subsequently determined using a sigmoidal dose-response curve (variable slope) in GraphPad Prism® 5 software.
Compounds of formula (I) caused inhibition of mTOR kinase activity as determined by this assay.

T1 sequence (P42336 whole entry): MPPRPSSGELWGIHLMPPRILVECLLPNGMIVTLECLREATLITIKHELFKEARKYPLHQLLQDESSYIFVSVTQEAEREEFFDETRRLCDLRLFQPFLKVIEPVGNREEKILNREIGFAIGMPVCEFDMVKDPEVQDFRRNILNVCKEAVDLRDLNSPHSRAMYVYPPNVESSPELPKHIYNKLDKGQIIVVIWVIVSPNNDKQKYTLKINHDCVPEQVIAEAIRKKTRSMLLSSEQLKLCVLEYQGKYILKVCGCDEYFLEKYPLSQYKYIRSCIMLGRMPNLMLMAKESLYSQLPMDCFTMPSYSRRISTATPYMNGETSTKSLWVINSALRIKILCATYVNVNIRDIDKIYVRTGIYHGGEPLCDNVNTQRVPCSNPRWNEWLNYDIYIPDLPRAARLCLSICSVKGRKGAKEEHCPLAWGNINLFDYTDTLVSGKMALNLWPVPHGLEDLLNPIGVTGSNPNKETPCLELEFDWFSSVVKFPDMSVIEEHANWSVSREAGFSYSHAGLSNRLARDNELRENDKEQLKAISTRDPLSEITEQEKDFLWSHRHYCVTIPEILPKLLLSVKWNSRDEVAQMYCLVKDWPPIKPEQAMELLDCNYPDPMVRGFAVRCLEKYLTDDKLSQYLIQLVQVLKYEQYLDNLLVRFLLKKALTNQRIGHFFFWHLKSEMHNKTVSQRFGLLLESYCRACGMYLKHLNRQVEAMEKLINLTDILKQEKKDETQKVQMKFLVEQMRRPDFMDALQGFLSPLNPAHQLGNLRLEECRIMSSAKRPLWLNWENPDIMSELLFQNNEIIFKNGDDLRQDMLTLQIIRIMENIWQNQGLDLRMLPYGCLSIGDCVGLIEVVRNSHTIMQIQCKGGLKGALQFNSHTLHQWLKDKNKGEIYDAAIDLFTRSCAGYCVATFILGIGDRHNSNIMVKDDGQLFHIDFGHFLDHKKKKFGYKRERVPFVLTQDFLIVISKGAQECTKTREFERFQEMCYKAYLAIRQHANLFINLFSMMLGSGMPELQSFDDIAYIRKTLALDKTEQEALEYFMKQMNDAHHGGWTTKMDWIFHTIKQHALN
T1 sequence (P27986 whole entry partner): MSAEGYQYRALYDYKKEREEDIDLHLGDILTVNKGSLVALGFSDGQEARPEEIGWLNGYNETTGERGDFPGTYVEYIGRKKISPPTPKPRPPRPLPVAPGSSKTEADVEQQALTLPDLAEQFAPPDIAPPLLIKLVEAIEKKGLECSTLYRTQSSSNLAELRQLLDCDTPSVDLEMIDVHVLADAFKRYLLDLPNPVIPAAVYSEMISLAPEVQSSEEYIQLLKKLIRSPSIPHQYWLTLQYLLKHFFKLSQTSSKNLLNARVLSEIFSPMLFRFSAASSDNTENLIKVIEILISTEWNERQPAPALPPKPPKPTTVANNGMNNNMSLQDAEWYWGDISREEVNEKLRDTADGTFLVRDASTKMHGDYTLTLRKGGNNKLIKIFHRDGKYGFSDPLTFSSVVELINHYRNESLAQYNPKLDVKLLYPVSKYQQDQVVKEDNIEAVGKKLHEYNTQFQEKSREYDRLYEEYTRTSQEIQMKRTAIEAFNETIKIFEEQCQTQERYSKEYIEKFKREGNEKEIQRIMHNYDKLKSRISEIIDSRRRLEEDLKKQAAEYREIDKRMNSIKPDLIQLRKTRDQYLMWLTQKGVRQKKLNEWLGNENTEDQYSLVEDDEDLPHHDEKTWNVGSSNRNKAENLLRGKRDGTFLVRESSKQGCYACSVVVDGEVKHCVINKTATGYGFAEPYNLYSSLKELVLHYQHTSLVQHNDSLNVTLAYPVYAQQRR

pIC50 [1]	pIC50 (mTOR kinase)	Compound
6.70 to 7.30	> 7.30	CN(C)CCNC(=O)c1ccc2c(N3CCOCC3)nc(-c3ccc(NC(=O)Nc4ccc(C(=O)N(C)C)cc4)cc3)nc2c1 [Example 7, 2-[4-{3-(4-Dimethycarbamoyl-phenyl)-Ureido]-phenyl}-4-morpholin-4-yl-quinazoline-7-carboxylic acid (2-dimethylamino-ethyl)-amide]
> 7.30	> 7.30	CN(C)C(=O)c1ccc(NC(=O)Nc2ccc(-c3nc(N4CCOCC4)c4ccc(-c5ccc(C#N)o5)cc4n3)c(F)c2)cc1 [Example 12, 4-(3-(4-(7-(5-cyanofuran-2-yl)-4-morpholino-quinazolin-2-yl)-3-fluorophenyl)ureido)-N,N-dimethyl-benzamide]
> 7.30	> 7.30	CN(C)C(=O)c1ccc(NC(=O)Nc2ccc(-c3nc(N4CCOCC4)c4ncc(-c5cnn(C)c5)cc4n3)c(F)c2F)cc1 [Example 14, 4-(3-(2,3-difluoro-4-(7-(1-methyl-1H-pyrazol-4-yl)-4-morpholino-pyrido[3,2-d]pyrimidin-2-yl)phenyl)ureido)-N,N-dimethyl-benzamide]
6.70 to 7.30	5.00 to 6.70	CN(C)C(=O)c1ccc(NC(=O)Nc2ccc(-c3nc(N4CCOCC4)c4ccc(-c5cccc(F)c5)cc4n3)cc2)cc1 [Example 47, 4-(3-{4-[7-(3-fluoro-phenyl)-4-morpholin-4-yl-quinazolin-2-yl]-phenyl}-ureido)-N,N-dimethyl-benzamide]
> 7.30	5.00 to 6.70	Cc1ccc(-c2ccc3c(N4CCOCC4)nc(-c4ccc(NC(=O)Nc5ccc(C(=O)N(C)C)cc5)nc4)nc3c2)o1 [Example 57, N,N-dimethyl-4-(3-{5-[7-(5-methyl-furan-2-yl)-4-morpholin-4-yl-quinazolin-2-yl]-pyridin-2-yl}-ureido)-benzamide]
6.70 to 7.30	5.00 to 6.70	Cc1ccc(-c2ccc3c(N4CCOCC4)nc(-c4ccc(NC(=O)Nc5ccc(C(=O)N(C)C)cc5)cc4)nc3c2)s1 [Example 61, N,N-dimethyl-4-(3-{4-[7-(5-methyl-thiophen-2-yl)-4-morpholin-4-yl-quinazolin-2-yl]-phenyl}-ureido)-benzamide]
5.00 to 6.70	5.00 to 6.70	CN(C)C(=O)c1ccc(NC(=O)Nc2ccc(-c3nc(N4CCOCC4)c4ccc(-c5cc6ccccc6o5)cc4n3)cc2)cc1 [Example 64, 4-{3-[4-(7-benzofuran-2-yl-4-morpholin-4-yl-quinazolin-2-yl)-phenyl]-ureido}-N,N-dimethyl-benzamide]

The next lines start with the compound.

Compound	pIC50 [1]	pIC50 (mTOR kinase)
Cc1noc(C)c1-c1ccc2c(N3CCOCC3)nc(-c3ccc(NC(=O)Nc4ccc(C(=O)N5CCC(N(C)C)C5)cc4)c(F)c3)nc2c1 (stereo in doubt) [Example 221, (S)-1-(4-(3-(dimethylamino)pyrrolidine-1-carbonyl)phenyl)-3-(4-(7-(3,5-dimethylisoxazol-4-yl)-4-morpholino-quinazolin-2-yl)-2-fluorophenyl)urea]	6.70 to 7.30	6.70 to 7.30
Cc1ccc(-c2ccc3c(N4CCOCC4)nc(-c4ccc(NC(=O)Nc5ccc(C(=O)N(C)C)cc5)c(F)c4)nc3c2)o1 [Example 8, 4-(3-{2-Fluoro-4-[7-(5-methyl-furan-2-yl)-4-morpholin-4-yl-quinazolin-2-yl]-phenyl}ureido)dimethyl-benzamide]	5.00 to 6.70	6.70 to 7.30
CN(C)C(=O)c1ccc(NC(=O)Nc2ccc(-c3nc(N4CCOCC4)c4ccc(-c5ccc(C(=O)O)o5)cc4n3)cc2)cc1 [Example 10, 5-(2-(4-(3-(4-(dimethylcarbamoyl)phenyl)ureido)phenyl)-4-morpholino-quinazolin-7-yl)furan-2-carboxylic acid]	> 7.30	> 7.30
CN1CCN(C(=O)c2ccc(-c3ccc4c(N5CCOCC5)nc(-c5ccc(NC(=O)Nc6ccc(C(=O)N(C)C)cc6)cc5)nc4c3)o2)CC1 [Example 11, N,N-dimethyl-4-(3-(4-(7-(5-(4-methylpiperazine-1-carbonyl)furan-2-yl)-4-morpholino-quinazolin-2-yl)phenyl)ureido)-benzamide]	> 7.30	> 7.30
CC(=O)c1ccc(-c2ccc3c(N4CCOCC4)nc(-c4ccc(NC(=O)Nc5ccc(C(=O)N(C)C)c(F)c5)cc4)nc3c2)o1 [Example 13, 4-(3-(4-(7-(5-acetylfuran-2-yl)-4-morpholino-quinazolin-2-yl)phenyl)ureido)-2-fluoro-N,N-dimethyl-benzamide]	> 7.30	> 7.30
CC(O)c1ccc(-c2cnc3c(N4CCOCC4)nc(-c4ccc(NC(=O)Nc5ccc(C(=O)N(C)C)cc5)c(F)c4)nc3c2)o1 (centres unmarked) [Example 15, 4-(3-(2-fluoro-4-(7-(5-(1-hydroxyethyl)furan-2-yl)-4-morpholino-pyrido[3,2-d]pyrimidin-2-yl)phenyl)ureido)-N,N-dimethyl-benzamide]	> 7.30	> 7.30
Cc1ccc(-c2ccc3c(N4CCOCC4)nc(-c4ccc(NC(=O)Nc5ccc(N6CCCC6=O)cc5)cc4)nc3c2)o1 [Example 18, 1-(4-(7-(5-methylfuran-2-yl)-4-morpholino-quinazolin-2-yl)phenyl)-3-(4-(2-oxopyrrolidin-1-yl)phenyl)urea]	5.00 to 6.70	> 7.30
COc1cccc(-c2ccc3c(N4CCOCC4)nc(-c4ccc(NC(=O)Nc5ccc(C(=O)N(C)C)cc5)cc4)nc3c2)c1 [Example 48, 4-(3-{4-[7-(3-methoxy-phenyl)-4-morpholin-4-yl-quinazolin-2-yl]-phenyl}-ureido)-N,N-dimethyl-benzamide]	6.70 to 7.30	6.70 to 7.30
CN(C)C(=O)c1ccc(NC(=O)Nc2ccc(-c3nc(N4CCOCC4)c4ccc(-c5cccc(N(C)C)c5)cc4n3)cc2)cc1 [Example 50, 4-(3-{4-[7-(3-dimethylamino-phenyl)-4-morpholin-4-yl-quinazolin-2-yl]-phenyl}-ureido)-N,N-dimethyl-benzamide]	> 7.30	6.70 to 7.30
CNC(=O)c1ccc(NC(=O)Nc2ccc(-c3nc(N4CCOCC4)c4ccc(-c5ccc(C)o5)cc4n3)cc2)cc1 [Example 56, N-methyl-4-(3-{4-[7-(5-methyl-furan-2-yl)-4-morpholin-4-yl-quinazolin-2-yl]-phenyl}-ureido)-benzamide]	6.70 to 7.30	> 7.30
Cc1ccc(-c2cccc3c(N4CCOCC4)nc(-c4ccc(NC(=O)Nc5ccc(C(=O)N(C)C)cc5)cc4)nc23)o1 [Example 71, N,N-dimethyl-4-(3-{4-[8-(5-methyl-furan-2-yl)-4-morpholin-4-yl-quinazolin-2-yl]-phenyl}-ureido)-benzamide]	6.70 to 7.30	> 7.30
CN(C)C(=O)c1ccc(NC(=O)Nc2ccc(-c3nc(N4CCOCC4)c4ccc(-c5cnc(N)nc5)cc4n3)cc2)cc1 [Example 76, 4-(3-{4-[7-(2-amino-pyrimidin-5-yl)-4-morpholin-4-yl-quinazolin-2-yl]-phenyl}-ureido)-N,N-dimethyl-benzamide]	> 7.30	> 7.30
CN(C)C(=O)c1ccc(NC(=O)Nc2ccc(-c3nc(N4CCOCC4)c4ncc(-c5cccnc5F)cc4n3)cc2)cc1 [Example 78, 4-(3-{4-[7-(2-fluoro-pyridin-3-yl)-4-morpholin-4-yl-pyrido[3,2-d]pyrimidin-2-yl]-phenyl}-ureido)-N,N-dimethyl-benzamide]	> 7.30	> 7.30
O=C(Nc1ccc(-c2nc(N3CCOCC3)c3ccc(-c4cccnc4F)cc3n2)cc1)Nc1ccc(N2CCCC2=O)cc1 [Example 292, 1-(4-(7-(2-fluoropyridin-3-yl)-4-morpholinoquinazolin-2-yl)phenyl)-3-(4-(2-oxopyrrolidin-1-yl)phenyl)urea]		> 7.30

Reference: patent US9115092B2, “Substituted quinazoline and pyrido-pyrimidine derivatives” (Asana Biosciences, LLC, priority 2010, dated 2015)
